Measured values: US9241493B2, “Use of an enaminocarbonyl compound in combination with a biological control agent” (BAYER INTELLECTUAL PROPERTY GMBH, priority 2011, dated 2016)

How the values were obtained:
Format in all cases: in vivo
[1] = test system: larvae of the Banded Cucumber Beetle (Diabrotica balteata); test: Diabrotica balteata larvae test, soil application, corn; conditions: 60 g ai/ha, mixed into soil, based on number of germinated corn plants
Method: Diabrotica balteata Test/Larvae—Soil Application
(§1) To produce a suitable preparation of active compound, 1 part by weight of active compound is mixed with the stated amount of solvent and emulsifier, and the concentrate is diluted with emulsifier-containing water to the desired concentration. To produce a suitable preparation of a spore suspension the spores are diluted with emulsifier-containing water to the desired concentration.
The preparation containing the active ingredient is thoroughly mixed into the soil. […] The treated soil is filled into pots and sown with 5 corn seeds per pot. 3 days after sowing larvae of the Banded Cucumber Beetle (Diabrotica balteata) are placed in the soil.
After the desired period of time the level of activity expressed in % is determined. The level of activity is calculated on the basis of the number of corn plants which have successfully germinated. The efficacy values determined thus are recalculated using the Colby-formula.

[2] = test system: Green peach aphid (Myzus persicae); test: Myzus persicae test, foliar application on infested cabbage leaves; conditions: 144 h, 100 g ai/ha, foliar spray, 6 d, read-out: Mortality in % after 6 d
Method: Myzus persicae—Foliar Application
(§2) To produce a suitable preparation of active compound, 1 part by weight of active compound is mixed with the stated amount of solvent and emulsifier, and the concentrate is diluted with emulsifier-containing water to the desired concentration. To produce a suitable preparation of a biological suspension the cells or spores are diluted with emulsifier-containing water to the desired concentration.
Cabbage leaves (Brassica oleracea) which are heavily infested by the Green peach aphid (Myzus persicae) are treated by being sprayed with the preparation of the active compound at the desired concentration.
After the specified period of time, mortality in % is determined. 100% means that all the aphids have been killed; 0% means that none of the aphids have been killed. The mortality values thus determined are recalculated using the Colby-formula.

[3] = test system: mustard beetle larvae (Phaedon cochleariae); test: Phaedon cochleariae larvae test, spray application on Chinese cabbage leaf discs; conditions: foliar, 144 h, 100 g ai/ha, 6 d, read-out: Mortality in % after 6 d
Method: Phaedon cochleariae Larvae—Spray Application
as §2, with “cells, viruses” for “cells”
Chinese cabbage (Brassica pekinesis) leaf—discs are sprayed with a preparation of the active ingredient of the desired concentration. Once dry, the leaf discs are infested with mustard beetle larvae (Phaedon cochleariae).
(§3) After the specified period of time, mortality in % is determined. 100% means that all the beetle larvae have been killed; 0% means that none of the beetle larvae have been killed. The mortality values thus determined are recalculated using the Colby-formula.

[4] = test system: Green peach aphid (Myzus persicae); test: Myzus persicae test, spray application on Chinese cabbage leaf discs; conditions: foliar, 24 h, 20 g ai/ha, 1 d, read-out: Mortality in % after 1 d
Method: Myzus persicae—Test (Spray Application)
as §2
Chinese cabbage (Brassica pekinesis) leaf—discs infected with all instars of the green peach aphid (Myzus persicae), are sprayed with a preparation of the active ingredient at the desired concentration.
After the specified period of time mortality in % is determined. 100% means that all aphids have been killed; 0% means that none of the aphids have been killed.

[5] = test system: larvae of the mustard beetle (Phaedon cochleariae); test: Phaedon cochleariae larvae test, foliar application on cabbage leaves; conditions: 48 h, 60 g ai/ha, foliar spray, 2 d, read-out: Mortality in % after 2 d
Method: Phaedon cochleariae Larvae—Foliar Application
as §1
Cabbage leaves (Brassica oleracea) are treated by being sprayed with the preparation of the active compound of the desired concentration and are infested with larvae of the mustard beetle (Phaedon cochleariae) as long as the leaves are still moist.
as §3

[6] = test system: Seeds of soybean (Glycine max); test: Seed treatment, germination test soybean; conditions: 0.3 g ai/kg seeds (head: g ai/kg seeds)
Method: Seed Treatment—Germination Test Soybean
Seeds of soybean (Glycine max) were treated by being mixed with the desired amount of active compound and spores and water. After drying, 25 seeds were sown into each pot filled with sandy loam.
After 4 days the level of activity expressed in % was determined. The level of activity was calculated on the basis of the number of soybean plants which have successfully germinated.

O=C1C=C(N(Cc2ccc(Cl)nc2)CC(F)F)CO1 [Compound (I-3), 4-{[(6-Chloropyrid-3-yl)methyl](2,2-difluorethyl)amino}furan-2(5H)-one]
Efficacy in % after 5 d [1]: 75% | mortality at 100 g/ha [2]: 90% | mortality at 100 g/ha [3]: 0% | mortality at 20 g/ha [4]: 0% | mortality at 60 g/ha [5]: 20% | Germination in % related to untreated control, evaluation after 4 d [6]: 72.73%
